# Patent publication US12611475B2, “System for implantation by sterilisation techniques” (Universidade de Santiago de Compostela, priority 2020, dated 2026)
# Counter-ions that a name gives are not always drawn.
# Columns and labels:
# [1] = system: Bacillus pumilus spores (ATCC 27142); conditions: 150 ppm H2O2, CO2 39° C., 100 bar, continuous flow 10 g/min, 15 minutes; 10^6 spores
# Procedure: Mask cutouts (4 cm 2) were inoculated with 10^6 spores contained in 100 μL of aqueous solution. The samples were placed inside sterilization bags and heat-sealed to be placed in a 600 mL stainless steel autoclave (Novagenesis, Novasterilis Inc.) provided with lower mechanical agitation. H2O2 was added as an additive at the bottom of the autoclave to avoid direct contact with the masks at a content of 150 ppm. The system is heated to 39° C. and pressurized with a CO2 flow to reach 100 bar. A continuous flow of CO2 of 0 to 10 g/min through the autoclave was maintained for a period of 15 minutes. Subsequently, the system is depressurized to reach atmospheric pressure at a rate of 14.3 bar/min.
# The effectiveness of the sterilization method was evaluated by sowing tryptone-soybean agar culture medium and subsequent counting of formed colonies.
# [2] = X-ray diffraction and infrared spectrum after treatment; format: physicochemical; conditions: 1200 ppm hydrogen peroxide, supercritical CO2 39° C., 140 bar, 2.5 and 2.5 hours; versus untreated
# Procedure: FIG. 4. X-ray diffraction spectrum (A) and infrared spectrum (B) of vancomycin hydrochloride i) untreated and (ii) after addition of 1200 ppm hydrogen peroxide and processing with supercritical CO2 at 39° C., 140 bar during batch stages and continuous compressed CO2 flux for 2.5 and 2.5 hours, respectively. Caption: vancomycin untreated hydrochloride (black), vancomycin treated hydrochloride (gray)
Compound,sterility level reached on FFP3 mask cutouts [1],crystalline form after treatment [2]
"OO [Test H2O2, hydrogen peroxide]",SAL-6,–
"CN[C@H](CC(C)C)C(=O)N[C@H]1C(=O)N[C@@H](CC(N)=O)C(=O)N[C@H]2C(=O)N[C@H]3C(=O)N[C@H](C(=O)N[C@H](C(=O)O)c4cc(O)cc(O)c4-c4cc3ccc4O)[C@H](O)c3ccc(c(Cl)c3)Oc3cc2cc(c3O[C@@H]2O[C@H](CO)[C@@H](O)[C@H](O)[C@H]2O[C@H]2C[C@](C)(N)[C@H](O)[C@H](C)O2)Oc2ccc(cc2Cl)[C@H]1O [Vancomycin hydrochloride, vancomycin hydrochloride]",–,not altered
